From PubChem BioAssay (NCI)
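Step 1: Grow cells in 96-well plates. Step 2: Expose to compound for 48 hours at 5 concentrations. Step 3: Interpolate endpoints linearly; if unreached, use highest concentration. TGI marks complete inhibition of growth.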

Tests used:
Assay in all cases: NCI anticancer screen, dose series, 48 h
RPMI-8226 leukemia = tested on: RPMI-8226 leukemia
SF-268 CNS = tested on: SF-268 CNS
OVCAR-4 ovarian = tested on: OVCAR-4 ovarian
HL-60(TB) leukemia = tested on: HL-60(TB) leukemia
SNB-19 CNS = tested on: SNB-19 CNS
IGROV1 ovarian = tested on: IGROV1 ovarian
ACHN renal = tested on: ACHN renal
OVCAR-5 ovarian = tested on: OVCAR-5 ovarian
CCRF-CEM leukemia = tested on: CCRF-CEM leukemia
UACC-257 melanoma = tested on: UACC-257 melanoma
MDA-MB-435 = tested on: MDA-MB-435
SK-OV-3 ovarian = tested on: SK-OV-3 ovarian
OVCAR-3 ovarian = tested on: OVCAR-3 ovarian
LOX IMVI melanoma = tested on: LOX IMVI melanoma
SK-MEL-5 melanoma = tested on: SK-MEL-5 melanoma
CAKI-1 renal = tested on: CAKI-1 renal
MCF7 breast = tested on: MCF7 breast
NCI-H522 lung = tested on: NCI-H522 lung
HS 578T breast = tested on: HS 578T breast
SR leukemia = tested on: SR leukemia
A549 NSCLC = tested on: A549 NSCLC
OVCAR-8 ovarian = tested on: OVCAR-8 ovarian
SNB-75 CNS = tested on: SNB-75 CNS
HCC-2998 colon = tested on: HCC-2998 colon
DU-145 prostate = tested on: DU-145 prostate
SW-620 colon = tested on: SW-620 colon
NCI/ADR-RES ovarian = tested on: NCI/ADR-RES ovarian
SF-295 CNS = tested on: SF-295 CNS
NCI-H23 lung = tested on: NCI-H23 lung
COLO 205 colon = tested on: COLO 205 colon
RXF 393 renal = tested on: RXF 393 renal
M14 melanoma = tested on: M14 melanoma
MDA-MB-231 breast = tested on: MDA-MB-231 breast
HOP-62 NSCLC = tested on: HOP-62 NSCLC
T-47D breast = tested on: T-47D breast
U251 CNS = tested on: U251 CNS
MOLT-4 leukemia = tested on: MOLT-4 leukemia
K-562 leukemia = tested on: K-562 leukemia
KM12 colon = tested on: KM12 colon
HCT-15 colon = tested on: HCT-15 colon
NCI-H226 lung = tested on: NCI-H226 lung
A498 renal = tested on: A498 renal
NCI-H460 lung = tested on: NCI-H460 lung
HOP-92 NSCLC = tested on: HOP-92 NSCLC
786-0 renal = tested on: 786-0 renal
UACC-62 melanoma = tested on: UACC-62 melanoma
SF-539 CNS = tested on: SF-539 CNS
EKVX NSCLC = tested on: EKVX NSCLC
TK-10 renal = tested on: TK-10 renal
MDA-N = tested on: MDA-N
HT29 colon = tested on: HT29 colon
MALME-3M melanoma = tested on: MALME-3M melanoma
SK-MEL-28 melanoma = tested on: SK-MEL-28 melanoma
HCT-116 colon = tested on: HCT-116 colon
SN12C renal = tested on: SN12C renal
UO-31 renal = tested on: UO-31 renal
PC-3 prostate = tested on: PC-3 prostate
SK-MEL-2 melanoma = tested on: SK-MEL-2 melanoma
BT-549 breast = tested on: BT-549 breast

`C=CO/N=[N+](\[O-])N(CC)CC` gave a TGI (RPMI-8226 leukemia) of over 100 µM, a TGI (SF-268 CNS) of over 100 µM and a TGI (OVCAR-4 ovarian) of over 100 µM. The TGI (HL-60(TB) leukemia) was over 100 µM, the TGI (SNB-19 CNS) was over 100 µM and the TGI (IGROV1 ovarian) was over 100 µM. The TGI (ACHN renal) was over 100 µM, the TGI (OVCAR-5 ovarian) was over 100 µM and the TGI (CCRF-CEM leukemia) was over 100 µM. For the same compound, the TGI (UACC-257 melanoma) was over 100 µM, the TGI (MDA-MB-435) was over 100 µM and the TGI (SK-OV-3 ovarian) was over 100 µM. It also gave a TGI (OVCAR-3 ovarian) of over 100 µM, a TGI (LOX IMVI melanoma) of over 100 µM and a TGI (SK-MEL-5 melanoma) of over 100 µM. The TGI (CAKI-1 renal) was over 100 µM, the TGI (MCF7 breast) was over 100 µM and the TGI (NCI-H522 lung) was over 100 µM. It also gave a TGI (HS 578T breast) of over 100 µM, a TGI (SR leukemia) of over 100 µM and a TGI (A549 NSCLC) of over 100 µM. It also gave a TGI (OVCAR-8 ovarian) of over 100 µM, a TGI (SNB-75 CNS) of over 100 µM and a TGI (HCC-2998 colon) of over 100 µM. It also gave a TGI (DU-145 prostate) of over 100 µM, a TGI (SW-620 colon) of over 100 µM and a TGI (NCI/ADR-RES ovarian) of over 100 µM. The TGI (SF-295 CNS) was over 100 µM, the TGI (NCI-H23 lung) was over 100 µM and the TGI (COLO 205 colon) was over 100 µM. It also gave a TGI (RXF 393 renal) of over 100 µM, a TGI (M14 melanoma) of over 100 µM and a TGI (MDA-MB-231 breast) of over 100 µM. The TGI (HOP-62 NSCLC) was over 100 µM, the TGI (T-47D breast) was over 100 µM and the TGI (U251 CNS) was over 100 µM. For the same compound, the TGI (MOLT-4 leukemia) was over 100 µM, the TGI (K-562 leukemia) was over 100 µM and the TGI (KM12 colon) was over 100 µM. It also gave a TGI (HCT-15 colon) of over 100 µM, a TGI (NCI-H226 lung) of over 100 µM and a TGI (A498 renal) of over 100 µM. It also gave a TGI (NCI-H460 lung) of over 100 µM, a TGI (HOP-92 NSCLC) of over 100 µM and a TGI (786-0 renal) of over 100 µM. The TGI (UACC-62 melanoma) was over 100 µM, the TGI (SF-539 CNS) was over 100 µM and the TGI (EKVX NSCLC) was over 100 µM. The TGI (TK-10 renal) was over 100 µM, the TGI (MDA-N) was over 100 µM and the TGI (HT29 colon) was over 100 µM. The TGI (MALME-3M melanoma) was over 100 µM, the TGI (SK-MEL-28 melanoma) was over 100 µM and the TGI (HCT-116 colon) was over 100 µM. For the same compound, the TGI (SN12C renal) was over 100 µM.

`O=C(/C(=C(/O)c1ccccc1)c1nc2ccccc2sc1=O)c1ccccc1` gave a TGI (RPMI-8226 leukemia) of 41.8 µM, a TGI (SF-268 CNS) of over 100 µM and a TGI (OVCAR-4 ovarian) of over 100 µM. For the same compound, the TGI (UO-31 renal) was 74.4 µM, the TGI (HL-60(TB) leukemia) was 20.7 µM and the TGI (SNB-19 CNS) was over 100 µM. The TGI (IGROV1 ovarian) was over 100 µM, the TGI (ACHN renal) was over 100 µM and the TGI (OVCAR-5 ovarian) was over 100 µM. It also gave a TGI (CCRF-CEM leukemia) of 6.51 µM, a TGI (PC-3 prostate) of over 100 µM and a TGI (UACC-257 melanoma) of 46.2 µM. The TGI (MDA-MB-435) was over 100 µM, the TGI (SK-OV-3 ovarian) was 77.3 µM and the TGI (OVCAR-3 ovarian) was 36.3 µM. For the same compound, the TGI (LOX IMVI melanoma) was over 100 µM, the TGI (SK-MEL-5 melanoma) was 54.3 µM and the TGI (CAKI-1 renal) was over 100 µM. The TGI (MCF7 breast) was 75.5 µM, the TGI (NCI-H522 lung) was 68 µM and the TGI (HS 578T breast) was over 100 µM. The TGI (A549 NSCLC) was over 100 µM, the TGI (OVCAR-8 ovarian) was over 100 µM and the TGI (SNB-75 CNS) was over 100 µM. For the same compound, the TGI (HCC-2998 colon) was 59.7 µM, the TGI (DU-145 prostate) was over 100 µM and the TGI (SK-MEL-2 melanoma) was 76 µM. It also gave a TGI (SW-620 colon) of over 100 µM, a TGI (NCI/ADR-RES ovarian) of 74.4 µM and a TGI (SF-295 CNS) of 74.9 µM. For the same compound, the TGI (NCI-H23 lung) was 68 µM, the TGI (COLO 205 colon) was over 100 µM and the TGI (RXF 393 renal) was over 100 µM. It also gave a TGI (M14 melanoma) of 33.3 µM, a TGI (MDA-MB-231 breast) of over 100 µM and a TGI (HOP-62 NSCLC) of 44.1 µM. It also gave a TGI (T-47D breast) of over 100 µM, a TGI (U251 CNS) of over 100 µM and a TGI (K-562 leukemia) of 45 µM. The TGI (KM12 colon) was over 100 µM, the TGI (HCT-15 colon) was over 100 µM and the TGI (NCI-H226 lung) was 72.8 µM. The TGI (BT-549 breast) was over 100 µM, the TGI (A498 renal) was over 100 µM and the TGI (NCI-H460 lung) was 30.5 µM. It also gave a TGI (HOP-92 NSCLC) of over 100 µM, a TGI (786-0 renal) of over 100 µM and a TGI (UACC-62 melanoma) of over 100 µM. It also gave a TGI (SF-539 CNS) of 75 µM, a TGI (EKVX NSCLC) of over 100 µM and a TGI (TK-10 renal) of over 100 µM. The TGI (MDA-N) was over 100 µM, the TGI (HT29 colon) was 72.3 µM and the TGI (MALME-3M melanoma) was over 100 µM. The TGI (SK-MEL-28 melanoma) was over 100 µM, the TGI (HCT-116 colon) was over 100 µM and the TGI (SN12C renal) was 90.5 µM.
